In ChEMBL document CHEMBL1129779, “A novel class of antagonists for metabotropic glutamate receptors, 7-(Hydroxyimino)cyclopropa[b]chromen-1a-carboxylates” (Bioorg Med Chem Lett, 1996):

Target: T1, Metabotropic glutamate receptor 1 (Homo sapiens, UniProt Q13255)
Assay: Compound was tested for inhibition of glutamate-evoked (10 uM) [Ca2+] mobilization in Metabotropic glutamate receptor 1 expressed-CHO cells; NE: No effect at 1-100 uM
Type: cell-based

T1 sequence (Q13255 whole entry): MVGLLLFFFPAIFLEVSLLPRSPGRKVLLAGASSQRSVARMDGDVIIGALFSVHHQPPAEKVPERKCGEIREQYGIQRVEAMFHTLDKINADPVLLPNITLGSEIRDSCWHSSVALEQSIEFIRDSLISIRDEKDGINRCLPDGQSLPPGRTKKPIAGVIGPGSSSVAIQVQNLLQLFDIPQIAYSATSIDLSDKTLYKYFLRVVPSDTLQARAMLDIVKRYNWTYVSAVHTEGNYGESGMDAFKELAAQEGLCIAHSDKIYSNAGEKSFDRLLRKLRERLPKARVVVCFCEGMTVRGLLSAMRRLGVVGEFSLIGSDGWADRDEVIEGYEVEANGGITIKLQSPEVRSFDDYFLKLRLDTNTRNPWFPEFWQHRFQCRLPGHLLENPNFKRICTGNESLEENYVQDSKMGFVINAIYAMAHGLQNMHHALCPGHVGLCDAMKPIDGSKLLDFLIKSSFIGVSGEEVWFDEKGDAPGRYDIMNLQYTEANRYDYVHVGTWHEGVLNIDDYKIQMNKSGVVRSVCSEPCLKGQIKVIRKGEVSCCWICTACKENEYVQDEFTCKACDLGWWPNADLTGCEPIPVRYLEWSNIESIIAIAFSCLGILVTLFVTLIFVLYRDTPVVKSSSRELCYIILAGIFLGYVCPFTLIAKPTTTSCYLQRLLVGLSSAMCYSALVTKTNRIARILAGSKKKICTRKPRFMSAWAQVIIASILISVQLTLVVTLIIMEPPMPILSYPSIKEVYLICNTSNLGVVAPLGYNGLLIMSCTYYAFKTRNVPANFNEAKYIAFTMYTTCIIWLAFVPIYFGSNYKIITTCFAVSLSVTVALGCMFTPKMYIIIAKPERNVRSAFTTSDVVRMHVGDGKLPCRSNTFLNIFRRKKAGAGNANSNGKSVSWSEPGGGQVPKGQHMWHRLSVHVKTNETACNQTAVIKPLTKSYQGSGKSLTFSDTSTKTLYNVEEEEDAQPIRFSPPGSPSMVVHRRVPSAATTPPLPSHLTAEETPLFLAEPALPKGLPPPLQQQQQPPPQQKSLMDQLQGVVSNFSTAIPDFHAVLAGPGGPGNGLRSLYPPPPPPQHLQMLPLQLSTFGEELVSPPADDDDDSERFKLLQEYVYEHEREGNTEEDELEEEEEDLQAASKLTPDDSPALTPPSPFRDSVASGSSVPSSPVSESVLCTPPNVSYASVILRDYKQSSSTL

Compound	IC50
O=C(Nc1ccccc1)c1cc(=O)c2ccccc2o1	No effect
O=C1c2ccccc2OC2(C(=O)Nc3ccccc3)CC12 (stereo unspecified)	No effect
CCOC(=O)c1cc(=O)c2ccccc2o1	No effect
CCOC(=O)C12CC1C(=O)c1ccccc1O2 (stereo unspecified)	No effect
CN(C(=O)c1cc(=O)c2ccccc2o1)c1ccccc1	No effect
CN(C(=O)C12CC1C(=O)c1ccccc1O2)c1ccccc1 (stereo unspecified)	No effect

Target: T1, Metabotropic glutamate receptor 1
Assay: Compound was tested for inhibition of glutamate-evoked (10 uM) [Ca2+] mobilization in mGluR1-alpha expressed-CHO cells.
Type: cell-based

Compound	IC50
O=C(Nc1ccccc1)C12CC1/C(=N\O)c1ccccc1O2 (stereo unspecified)	3 µM
CN(C(=O)C12CC1/C(=N\O)c1ccccc1O2)c1ccccc1 (stereo unspecified)	10 µM
CC(N)(C(=O)O)c1ccc(C(=O)O)cc1 (stereo unspecified)	700 µM
CCOC(=O)C12CC1/C(=N\O)c1ccccc1O2 (stereo unspecified)	23 µM
NC(C(=O)O)c1ccc(C(=O)O)c(O)c1 (stereo unspecified)	200 µM
